According to paper PMC9200688, “The production and biochemical characterization of α-carbonic anhydrase from Lactobacillus rhamnosus GG” (Applied Microbiology and Biotechnology, 2022):
Entries after “also recorded” stand apart in the source; their conditions may differ.

Molecular target: hCA I (human carbonic anhydrase isozyme I)
Test: not given
Conditions: human recombinant isozyme; stopped-flow CO2 hydrase assay; data published previously, ref Supuran [2008]; cited from earlier work
For Cc1ccc(S(N)(=O)=O)cc1 [compound 4], the Ki is listed as 78.5 µM. For O=C1NS(=O)(=O)c2ccccc21 [SAC, saccharin, reference compound], the Ki is listed as 18.5 µM. For NS(=O)(=O)c1cccc(S(N)(=O)=O)c1 [compound 3], the Ki is listed as 0.079 µM.

Tested on: L. rhamnosus GG
Test: In vitro inhibition assay with acetazolamide: growth of L. rhamnosus GG culture (OD595)
Conditions: AAZ 1 nM to 10 mM in MRS, 37 °C, anaerobic and aerobic, 96 h, OD595 at 0, 24, 48, 72, 96 h
In the case of CC(=O)Nc1nnc(S(N)(=O)=O)s1 [AAZ, acetazolamide], the “Effect of acetazolamide on cell growth of L. rhamnosus GG (OD595)” value (“Effect of acetazolamide” below) is reported as “very little or no inhibitory effect on cell growth; also recorded: no significant effect on the growth”.

Same assay, conditions: AAZ 1 nM to 10 mM in MRS, 37 °C, anaerobic and aerobic, 96 h, OD595 at 0, 24, 48, 72, 96 h; listed as Acetazolamide
In the case of CC(=O)Nc1nnc(S(N)(=O)=O)s1 [AAZ, acetazolamide], the “Effect of acetazolamide” value is reported as “marginal inhibitory effect on cell growth”.

Same assay, conditions: AAZ 1 nM to 10 mM in MRS, 37 °C, anaerobic and aerobic, 96 h, OD595 at 0, 24, 48, 72, 96 h; listed as acetazolamide
In the case of CC(=O)Nc1nnc(S(N)(=O)=O)s1 [AAZ, acetazolamide], the “Effect of acetazolamide” value is reported as “no significant effect on cell growth”.

Molecular target: T1, α-carbonic anhydrase of L. rhamnosus (LrhCA) (Lacticaseibacillus rhamnosus, UniProt A0A809N5C7)
T1 sequence (A0A809N5C7 1-215): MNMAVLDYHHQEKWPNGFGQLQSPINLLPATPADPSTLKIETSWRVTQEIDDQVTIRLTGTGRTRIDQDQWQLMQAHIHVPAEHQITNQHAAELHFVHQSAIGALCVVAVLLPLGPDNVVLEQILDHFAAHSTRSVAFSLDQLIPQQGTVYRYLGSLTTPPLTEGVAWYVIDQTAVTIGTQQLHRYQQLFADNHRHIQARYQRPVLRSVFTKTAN
Test: Sulfonamide inhibition of LrhCA, stopped-flow CO2 hydrase assay
Format: biochemical, Lactobacillus rhamnosus GG
Conditions: Ki LrhCA
Work on NS(=O)(=O)c1ccc(C(=O)O)cc1 [compound 18] yielded a Ki of 2.71 µM. In the case of Nc1cc(Cl)c(S(N)(=O)=O)cc1S(N)(=O)=O [compound 12], the Ki is reported as 7.93 µM. For Nc1ccc(S(N)(=O)=O)cc1Cl [compound 8], the Ki was 8.98 µM. In the case of NS(=O)(=O)c1ccc(CO)cc1 [compound 16], the Ki is reported as 6.01 µM. Work on NS(=O)(=O)c1ccc(N2CCCCS2(=O)=O)cc1 [SLT, reference compound] yielded a Ki of 9.31 µM. Compound Nc1nccc(Nc2ccc(S(N)(=O)=O)cc2)n1 [compound 19] has a Ki of 4.41 µM. Work on CC1(C)O[C@@H]2[C@@H](CO[C@@]3(COS(N)(=O)=O)OC(C)(C)O[C@@H]23)O1 [TPM, topiramate, reference compound] yielded a Ki of 0.508 µM. With Cc1onc(-c2ccccc2)c1-c1ccc(S(N)(=O)=O)cc1 [VLX, valdecoxib, reference compound] the Ki was over 10 µM. With Cc1ccc(S(N)(=O)=O)cc1 [compound 4] the Ki was 5.6 µM. Compound Nc1ccc(S(=O)(=O)Nc2nnc(S(N)(=O)=O)s2)cc1 has a Ki of 0.319 µM. For O=C1NS(=O)(=O)c2ccccc21 [SAC, saccharin, reference compound], the Ki was over 10 µM. Compound CCN[C@H]1CN(CCCOC)S(=O)(=O)c2sc(S(N)(=O)=O)cc21 [BRZ, brinzolamide, reference compound] has a Ki of 0.433 µM. For NS(=O)(=O)c1ccc(S(=O)(=O)Nc2cccc3c(Cl)c[nH]c23)cc1 [IND, indisulam, reference compound], the Ki was over 10 µM. For NS(=O)(=O)c1nnc(NS(=O)(=O)c2ccccc2)s1 [BZA, benzolamide, reference compound], the Ki was 0.387 µM. CC(=O)/N=c1/sc(S(N)(=O)=O)nn1C [MZA, methazolamide, reference compound] gave a Ki of 0.837 µM. For Nc1nnc(S(N)(=O)=O)s1 [compound 13, 5-amino-1,3,4-thiadizole-2-sulfonamide], the Ki was 0.866 µM. Nc1cc(C(F)(F)F)c(S(N)(=O)=O)cc1S(N)(=O)=O [compound 11] gave a Ki of 7.56 µM. With Nc1ccc(S(N)(=O)=O)cc1Br [compound 9, 3-bromo-4-amino-benzenesulfonamide] the Ki was over 10 µM. Compound NS(=O)(=O)Cc1noc2ccccc12 [ZNS, reference compound] has a Ki of 8.95 µM.

Same assay, conditions: stopped-flow CO2 hydrase assay; mean from three different assays, errors 5–10%; recombinant LrhCA; 15 min preincubation at room temperature; read-out: Ki LrhCA
Compound NS(=O)(=O)c1ccc(CCNS(=O)(=O)c2ccc([N+](=O)[O-])cc2CO)cc1 has a Ki of 0.378 µM. Compound “4-(2-hydroxymethyl-4-nitrophenyl-sulfonamido)ethylbenzenesulfonamide [compound 24]” has a Ki of 0.403 µM. Work on “4-(4-sulfanilyl-aminomethyl)-benzenesulfonamide [compound 23]” yielded a Ki of 0.487 µM. With NS(=O)(=O)c1cc(Cl)cc(Cl)c1O [compound 10] the Ki was 5.03 µM. NCc1ccc(S(N)(=O)=O)cc1 [compound 5, 4-aminomethyl-benzenesulfonamides] showed a Ki of over 10 µM. Nc1ccc(S(=O)(=O)Nc2ccc(S(N)(=O)=O)cc2)cc1 [compound 22] gave a Ki of 0.559 µM. With NS(=O)(=O)c1cccc(S(N)(=O)=O)c1 [compound 3] the Ki was 3.02 µM. NS(=O)(=O)c1cc2c(cc1Cl)NCNS2(=O)=O [HCT, hydrochlorothiazide, reference compound] gave a Ki of over 10 µM.
